In patent US20100022491A1, “4-HYDROXY-2-OXO-2,3-DIHYDRO-1,3-BENZOTHIAZOL-7YL COMPOUNDS FOR MODULATION OF B2-ADRENORECEPTOR ACTIVITY” (ASTRAZENECA AB, priority 2006, published 2010):
Structures can show the parent of a compound that is named as a salt.

Target: T1, recombinant human α1D receptor (Homo sapiens, UniProt P25100)
T1 construct: expressed in transfected cells; host or cells: HEK293
T1 sequence (P25100 1-572): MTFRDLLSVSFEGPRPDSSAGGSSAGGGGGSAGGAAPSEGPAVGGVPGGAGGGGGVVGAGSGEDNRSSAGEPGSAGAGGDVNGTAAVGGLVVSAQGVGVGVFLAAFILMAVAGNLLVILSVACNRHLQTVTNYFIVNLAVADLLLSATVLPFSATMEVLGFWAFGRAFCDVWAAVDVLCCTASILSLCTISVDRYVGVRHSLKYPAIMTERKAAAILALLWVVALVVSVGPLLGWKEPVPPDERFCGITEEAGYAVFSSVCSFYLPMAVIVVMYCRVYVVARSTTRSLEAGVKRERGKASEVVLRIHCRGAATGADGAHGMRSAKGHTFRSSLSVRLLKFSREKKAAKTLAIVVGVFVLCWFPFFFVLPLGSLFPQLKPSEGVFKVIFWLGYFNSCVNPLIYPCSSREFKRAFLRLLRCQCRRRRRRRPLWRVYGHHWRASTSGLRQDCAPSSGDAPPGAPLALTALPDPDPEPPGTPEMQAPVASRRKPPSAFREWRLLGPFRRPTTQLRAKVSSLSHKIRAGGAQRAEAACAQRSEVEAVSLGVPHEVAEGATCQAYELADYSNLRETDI
Assay: Adrenergic α1D selectivity binding assay ([3H]-prazosin)
Conditions: inhibition of [3H]-prazosin (0.3 nM) binding, HEK293 membranes; read-out: α1 bind pIC50 (converted)
Outline: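 HEK293 membranes with recombinant human α1D receptor incubated 2 h at room temperature with 0.3 nM [3H]-prazosin and compound in 50 mM HEPES, 1 mM EDTA, 0.1% gelatin, pH 7.4; BMY7378 (10 μM) defined non-specific binding. Filter-bound radioactivity counted; pIC50 from four-parameter logistic fit.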

Row | IC50 | SMILES
1 | 63.1 nM | O=C(CCNCCc1cc(F)ccc1F)N(CCNCCc1ccc(O)c2[nH]c(=O)sc12)C1CCCCCC1 [Example 83, N^1-Cycloheptyl-N^3-[2-(2,5-difluorophenyl)ethyl]-N^1-(2-{[2-(4-hydroxy-2-oxo-2,3-dihydro-1,3-benzothiazol-7-yl)ethyl]amino}ethyl)-β-alaninamide bis-trifluoroacetic acid salt]
2 | 200 nM | O=C(CCNCCc1cccc(Cl)c1)N(CCNCCc1ccc(O)c2[nH]c(=O)sc12)C1CCCC1 [Example 30, N^3-[2-(3-Chlorophenyl)ethyl]-N-cyclopentyl-N-(2-{[2-(4-hydroxy-2-oxo-2,3-dihydro-1,3-benzothiazol-7-yl)ethyl]amino}ethyl)-β-alaninamide bis-trifluoroacetic acid salt]
3 | 200 nM | O=C(CCNCCc1cccc(O)c1)N(CCNCCc1ccc(O)c2[nH]c(=O)sc12)C1CCCCCC1 [Example 37, N-Cycloheptyl-N-(2-{[2-(4-hydroxy-2-oxo-2,3-dihydro-1,3-benzothiazol-7-yl)ethyl]amino}ethyl)-N^3-[2-(3-hydroxyphenyl)ethyl]-β-alaninamide bis-trifluoroacetic acid salt]
4 | 794 nM | CC(C)(C)CN(CCNCCc1ccc(O)c2[nH]c(=O)sc12)C(=O)CCNC(C)(C)Cc1ccccc1 [Example 38, N^3-(1,1-Dimethyl-2-phenylethyl)-N-(2,2-dimethylpropyl)-N-(2-{[2-(4-hydroxy-2-oxo-2,3-dihydro-1,3-benzothiazol-7-yl)ethyl]amino}ethyl)-β-alaninamide bis-trifluoroacetic acid salt]
5 | 158 nM | NS(=O)(=O)c1ccc(CCNCCC(=O)N(CCNCCc2ccc(O)c3[nH]c(=O)sc23)C2CCCCC2)cc1 [Example 69, N^3-{2-[4-(Aminosulfonyl)phenyl]ethyl}-N^1-cyclohexyl-N^1-(2-{[2-(4-hydroxy-2-oxo-2,3-dihydro-1,3-benzothiazol-7-yl)ethyl]amino}ethyl)-β-alaninamide bis-trifluoroacetic acid salt]
6 | 398 nM | O=C(CCNCCc1ccc(F)c(F)c1)N(CCNCCc1ccc(O)c2[nH]c(=O)sc12)C1CCCCC1 [Example 73, N^1-Cyclohexyl-N^3-[2-(3,4-difluorophenyl)ethyl]-N^1-(2-{[2-(4-hydroxy-2-oxo-2,3-dihydro-1,3-benzothiazol-7-yl)ethyl]amino}ethyl)-β-alaninamide bis-trifluoroacetic acid salt]
7 | 251 nM | O=C(CCNCCc1nc2ccccc2[nH]1)N(CCNCCc1ccc(O)c2[nH]c(=O)sc12)C1CCCCC1 [Example 77, N^3-[2-(1H-Benzimidazol-2-yl)ethyl]-N^1-cyclohexyl-N^1-(2-{[2-(4-hydroxy-2-oxo-2,3-dihydro-1,3-benzothiazol-7-yl)ethyl]amino}ethyl)-β-alaninamide tris-trifluoroacetic acid salt]
8 | 251 nM | CC(C)(C)CN(CCNCCc1ccc(O)c2[nH]c(=O)sc12)C(=O)CCNCCc1cccc(Cl)c1 [Example 7, N^3-[2-(3-Chlorophenyl)ethyl]-N-(2,2-dimethylpropyl)-N-(2-{[2-(4-hydroxy-2-oxo-2,3-dihydro-1,3-benzothiazol-7-yl)ethyl]amino}ethyl)-β-alaninamide bis-trifluoroacetic acid salt]
9 | 1000 nM | CC(C)(C)CN(CCNCCc1ccc(O)c2[nH]c(=O)sc12)C(=O)CCNCCc1ccc(Cl)c(Cl)c1 [Example 9, N^3-[2-(3,4-Dichlorophenyl)ethyl]-N-(2,2-dimethylpropyl)-N-(2-{[2-(4-hydroxy-2-oxo-2,3-dihydro-1,3-benzothiazol-7-yl)ethyl]amino}ethyl)-β-alaninamide bis-trifluoroacetic acid salt]
10 | 501 nM | O=C(CCNCCc1ccc(Cl)cc1)N(CCNCCc1ccc(O)c2[nH]c(=O)sc12)C1CCOCC1 [Example 26, N^3-[2-(4-Chlorophenyl)ethyl]-N-(2-{[2-(4-hydroxy-2-oxo-2,3-dihydro-1,3-benzothiazol-7-yl)ethyl]amino}ethyl)-N-(tetrahydro-2H-pyran-4-yl)-β-alaninamide bis-trifluoroacetic acid salt]
11 | 398 nM | CC(C)(CNCCC(=O)N(CCNCCc1ccc(O)c2[nH]c(=O)sc12)C1CCCC1)c1ccccc1 [Example 32, N-cyclopentyl-N-(2-{[2-(4-hydroxy-2-oxo-2,3-dihydro-1,3-benzothiazol-7-yl)ethyl]amino}ethyl)-N^3-(2-methyl-2-phenylpropyl)-β-alaninamide bis-trifluoroacetic acid salt]
12 | 63.1 nM | O=C(CCNCCc1ccccc1)N(CCNCCc1ccc(O)c2[nH]c(=O)sc12)C1CCSCC1 [Example 62, N-(2-{[2-(4-Hydroxy-2-oxo-2,3-dihydro-1,3-benzothiazol-7-yl)ethyl]amino}ethyl)-N^3-(2-phenylethyl)-N^1-(tetrahydro-2H-thiopyran-4-yl)-β-alaninamide bis-trifluoroacetic acid salt]
13 | 158 nM | Cc1cccc(CCNCCC(=O)N(CCNCCc2ccc(O)c3[nH]c(=O)sc23)C2CCCCC2)c1 [Example 14, N-Cyclohexyl-N-(2-{[2-(4-hydroxy-2-oxo-2,3-dihydro-1,3-benzothiazol-7-yl)ethyl]amino}ethyl)-N^3-[2-(3-methylphenyl)ethyl]-β-alaninamide bis-trifluoroacetic acid salt]
14 | 158 nM | CCCC(CCC)N(CCNCCc1ccc(O)c2[nH]c(=O)sc12)C(=O)CCNCCc1cccc(F)c1 [Example 63, N^3-[2-(3-Fluorophenyl)ethyl]-N^1-(2-{[2-(4-hydroxy-2-oxo-2,3-dihydro-1,3-benzothiazol-7-yl)ethyl]amino}ethyl)-N^1-(1-propylbutyl)-β-alaninamide bis-trifluoroacetic acid salt]
15 | 100 nM | CC(C)(CO)CN(CCNCCc1ccc(O)c2[nH]c(=O)sc12)C(=O)CCNCCc1ccccc1Cl [Example 65, N^3-[2-(2-Chlorophenyl)ethyl]-N^1-(3-hydroxy-2,2-dimethylpropyl)-N^1-(2-{[2-(4-hydroxy-2-oxo-2,3-dihydro-1,3-benzothiazol-7-yl)ethyl]amino}ethyl)-β-alaninamide bis-trifluoroacetic acid salt]
16 | 631 nM | O=C(CCNCCc1ccc(Cl)cc1)N(CCNCCc1ccc(O)c2[nH]c(=O)sc12)C1CCC(F)(F)CC1 [Example 48, N^3-[2-(4-Chlorophenyl)ethyl]-N^1-(4,4-difluorocyclohexyl)-N^1-(2-{[2-(4-hydroxy-2-oxo-2,3-dihydro-1,3-benzothiazol-7-yl)ethyl]amino}ethyl)-β-alaninamide bis-trifluoroacetic acid salt]
17 | 158 nM | O=C(CCNCCc1ccccc1Cl)N(CCNCCc1ccc(O)c2[nH]c(=O)sc12)C1CCC(F)(F)CC1 [Example 46, N^3-[2-(2-Chlorophenyl)ethyl]-N^1-(4,4-difluorocyclohexyl)-N^1-(2-{[2-(4-hydroxy-2-oxo-2,3-dihydro-1,3-benzothiazol-7-yl)ethyl]amino}ethyl)-β-alaninamide bis-trifluoroacetic acid salt]

Row | SMILES | IC50
18 | CC(C)(C)CN(CCNCCc1ccc(O)c2[nH]c(=O)sc12)C(=O)CCNCCc1cccc(F)c1 [Example 44, N^1-(2,2-Dimethylpropyl)-N^3-[2-(3-fluorophenyl)ethyl]-N^1-(2-{[2-(4-hydroxy-2-oxo-2,3-dihydro-1,3-benzothiazol-7-yl)ethyl]amino}ethyl)-β-alaninamide bis-trifluoroacetic acid salt] | 316 nM
19 | O=C(CCNCCc1cccc(F)c1)N(CCNCCc1ccc(O)c2[nH]c(=O)sc12)C1CCCCC1 [Example 96, N-Cyclohexyl-N^3-[2-(3-fluorophenyl)ethyl]-N-(2-{[2-(4-hydroxy-2-oxo-2,3-dihydro-1,3-benzothiazol-7-yl)ethyl]amino}ethyl)-β-alaninamide dihydrobromide salt] | 200 nM
20 | O=C(CCNCCc1cc(F)cc(F)c1)N(CCNCCc1ccc(O)c2[nH]c(=O)sc12)C1CCCCC1 [Example 78, N^1-Cyclohexyl-N^3-[2-(3,5-difluorophenyl)ethyl]-N^1-(2-{[2-(4-hydroxy-2-oxo-2,3-dihydro-1,3-benzothiazol-7-yl)ethyl]amino}ethyl)-β-alaninamide bis-trifluoroacetic acid salt] | 251 nM
21 | O=C(CCNCCc1cccc(F)c1F)N(CCNCCc1ccc(O)c2[nH]c(=O)sc12)C1CCCCC1 [Example 81, N^1-Cyclohexyl-N^3-[2-(2,3-difluorophenyl)ethyl]-N^1-(2-{[2-(4-hydroxy-2-oxo-2,3-dihydro-1,3-benzothiazol-7-yl)ethyl]amino}ethyl)-β-alaninamide bis-trifluoroacetic acid salt] | 200 nM
22 | O=C(CCNCCc1ccccc1)N(CCNCCc1ccc(O)c2[nH]c(=O)sc12)C1CCCCCC1 [Example 98, N-Cycloheptyl-N-(2-{[2-(4-hydroxy-2-oxo-2,3-dihydro-1,3-benzothiazol-7-yl)ethyl]amino}ethyl)-N^3-(2-phenylethyl)-β-alaninamide dihydrobromide salt] | 63.1 nM
